The values that follow come from ChEMBL document CHEMBL1201862, “PubChem BioAssay data set” (2004).

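Growth conditions: 96-well plates. Treatment: test compound, 48 hours, 5 concentrations. Analysis: linear interpolation between bracketing concentrations; unreached endpoints set to highest concentration. GI50 is the concentration that inhibits growth by half.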 The source made the active and inactive calls. Rule as the data show it: active = GI50 up to about 1.1 µM and inactive = higher.

Some test systems named below: 786-0; A498; A549; CCRF-CEM; HT-29; MOLT-4; NCI-H460; NCI-H522; OVCAR-3; OVCAR-4; OVCAR-5; OVCAR-8; RPMI-8226; RXF 393; SK-OV-3; U-251; UO-31; CAKI-1.
Holding throughout (experiment): NCI-60 cell line screen, 48 h

As to `CCCCc1c2c(nc3c1CCC/C3=C\c1ccccc1)C(=O)CCC2`, the GI50 in the experiment with 786-0 is 25.2 µM (inactive); in the experiment with A498, 19.4 µM (inactive); with A549, 25.6 µM (inactive); in the experiment with CCRF-CEM it was 17.4 µM (inactive); in the experiment with HT-29, 15.5 µM (inactive); with MOLT-4, 13.8 µM (inactive). Also, the GI50 in the experiment on NCI-H460 was 34.2 µM (inactive); in the experiment with NCI-H522 it was 13.2 µM (inactive); in the experiment on OVCAR-3, 15.1 µM (inactive); in the experiment on OVCAR-4, 28.4 µM (inactive); in the experiment on OVCAR-5, 19.5 µM (inactive); in the experiment with OVCAR-8, 24.5 µM (inactive). Moreover, the GI50 with RPMI-8226 was 13.7 µM (inactive); in the experiment with RXF 393, 17 µM (inactive); in the experiment on SK-OV-3, 24.8 µM (inactive); in the experiment on U-251 it was 15.2 µM (inactive); in the experiment on UO-31, 24.5 µM (inactive).

Turning to `COc1cc(-c2cc(=O)c3ccccc3o2)ccc1N`, the GI50 is > 100 µM (inactive) in the experiment with 786-0; 27.2 µM (inactive) with A498; 52.1 µM (inactive) in the experiment on A549; 11.7 µM (inactive) with CAKI-1; 40.6 µM (inactive) with CCRF-CEM; 52.8 µM (inactive) in the experiment on HT-29. Also, the GI50 in the experiment on MOLT-4 was 25.5 µM (inactive); in the experiment with NCI-H460 it was 37.2 µM (inactive); in the experiment with NCI-H522, 20.5 µM (inactive); in the experiment on OVCAR-3 it was 62.8 µM (inactive); in the experiment on OVCAR-4 it was 54.5 µM (inactive); in the experiment with OVCAR-5, 84.7 µM (inactive). The GI50 in the experiment on OVCAR-8 is 51.9 µM (inactive); with RPMI-8226 it was 45.5 µM (inactive); with RXF 393, 41 µM (inactive); in the experiment on SK-OV-3, > 100 µM (inactive); with U-251, > 100 µM (inactive); with UO-31 it was 18.1 µM (inactive).

Regarding `Cc1cc(Br)ccc1/N=N/C1C(=O)ON=C1c1ccccc1` (centres undefined), the GI50 in the experiment with 786-0 is > 100 µM (inactive); with A498, 35 µM (inactive); in the experiment on A549, 25.7 µM (inactive); with HT-29 it was 47.1 µM (inactive); in the experiment with MOLT-4 it was 31.3 µM (inactive); in the experiment on NCI-H460, 55 µM (inactive). Besides, the GI50 in the experiment with NCI-H522 was 40.6 µM (inactive); in the experiment on OVCAR-3 it was > 100 µM (inactive); with OVCAR-4, > 100 µM (inactive); with OVCAR-5, > 100 µM (inactive); in the experiment on OVCAR-8, > 100 µM (inactive); with RPMI-8226, 28.4 µM (inactive). Further, the GI50 was 52.4 µM (inactive) in the experiment on RXF 393, > 100 µM (inactive) in the experiment on SK-OV-3, > 100 µM (inactive) in the experiment with U-251 and 46.9 µM (inactive) in the experiment with UO-31.

For `COC(=O)C(/C(=N/NC(N)=O)C(=O)Nc1c(C)cccc1C(C)(C)C)c1nc2ccc(Cl)cc2nc1O` (centres undefined), the GI50 in the experiment on 786-0, in the experiment on A498, in the experiment on A549, with CAKI-1, with CCRF-CEM and in the experiment on HT-29 was > 100 µM (inactive) throughout. Further, the GI50 in the experiment with MOLT-4, with NCI-H460, in the experiment on NCI-H522, with OVCAR-3, with OVCAR-4 and in the experiment on OVCAR-5 was > 100 µM (inactive) in each case. Moreover, the GI50 in the experiment with OVCAR-8, in the experiment on RPMI-8226, in the experiment on RXF 393, in the experiment with SK-OV-3, in the experiment with U-251 and with UO-31 was > 100 µM (inactive) throughout.

As for `CC(=O)n1c(=O)c2cc3c(=O)n(-c4cccc(C#N)c4)c(=O)c3cc2c1=O`, the GI50 was 90.4 µM (inactive) in the experiment with 786-0; > 100 µM (inactive) in the experiment with A498; > 100 µM (inactive) with A549; > 100 µM (inactive) in the experiment on CAKI-1; > 100 µM (inactive) in the experiment with CCRF-CEM; > 100 µM (inactive) in the experiment with HT-29. For the same compound, the GI50 with NCI-H460, with NCI-H522, in the experiment with OVCAR-3, in the experiment with OVCAR-4, with OVCAR-5 and in the experiment with OVCAR-8 was > 100 µM (inactive) each time. In addition, the GI50 is > 100 µM (inactive) in the experiment on RXF 393, > 100 µM (inactive) with SK-OV-3, 24.2 µM (inactive) with U-251 and > 100 µM (inactive) with UO-31.

In the case of `CS(=O)(=O)C1(Br)S(=O)(=O)OCCOS1(=O)=O`, the GI50 with 786-0, in the experiment on A498, with A549, in the experiment with CCRF-CEM, in the experiment on HT-29 and in the experiment with MOLT-4 was > 100 µM (inactive) throughout. The GI50 with NCI-H460, with NCI-H522, with OVCAR-3, in the experiment with OVCAR-4, in the experiment on OVCAR-5 and in the experiment on OVCAR-8 was > 100 µM (inactive) in each case. Further, the GI50 with RPMI-8226, with RXF 393, in the experiment on SK-OV-3, in the experiment on U-251 and with UO-31 was > 100 µM (inactive) each time.

Regarding `CSc1nc2nccnc2c(=O)[nH]1`, the GI50 in the experiment on 786-0, with A498, in the experiment with A549, in the experiment on CAKI-1, with CCRF-CEM and with HT-29 was > 100 µM (inactive) in each case. Moreover, the GI50 in the experiment on MOLT-4, in the experiment on NCI-H460, in the experiment with NCI-H522, in the experiment on OVCAR-4, in the experiment with OVCAR-5 and in the experiment on OVCAR-8 was > 100 µM (inactive) throughout. Besides, the GI50 with RPMI-8226, in the experiment on RXF 393, in the experiment with SK-OV-3, in the experiment on U-251 and with UO-31 was > 100 µM (inactive) each time.

Consider `COc1cc(-c2nn3c(=O)n(-c4ccc(Cl)cc4)c(=O)nc3s2)cc(OC)c1OC`, for which the GI50 in the experiment with 786-0 was 12.3 µM (inactive); in the experiment on A498 it was > 67 µM (inactive); in the experiment on A549, 41 µM (inactive); in the experiment with CAKI-1, 18.2 µM (inactive); in the experiment with CCRF-CEM, > 100 µM (inactive); in the experiment on HT-29, > 100 µM (inactive). The GI50 was 98.2 µM (inactive) in the experiment on MOLT-4; > 100 µM (inactive) in the experiment on NCI-H460; > 58.2 µM (inactive) in the experiment on NCI-H522; 54.5 µM (inactive) in the experiment with OVCAR-3; 41.9 µM (inactive) in the experiment with OVCAR-4; > 100 µM (inactive) in the experiment with OVCAR-5. The GI50 in the experiment on OVCAR-8 was > 49.5 µM (inactive); with RPMI-8226 it was > 50 µM (inactive); in the experiment on RXF 393 it was 8.87 µM (inactive); in the experiment on SK-OV-3, > 50 µM (inactive); in the experiment with U-251, 18 µM (inactive); in the experiment on UO-31, > 76.6 µM (inactive).

As for `Cc1cc(C)n2c(-c3ccccc3)c(C)cc2n1`, the GI50 with 786-0 was 78 µM (inactive); with A498, 35.2 µM (inactive); in the experiment with A549, 75.5 µM (inactive); in the experiment with CAKI-1 it was 30.9 µM (inactive); with CCRF-CEM, 1.09 µM (active); in the experiment on HT-29, 25.8 µM (inactive). Besides, the GI50 in the experiment with NCI-H460 was 37.3 µM (inactive); in the experiment with NCI-H522, 21.2 µM (inactive); in the experiment on OVCAR-3, 25.6 µM (inactive); in the experiment on OVCAR-4, 73.3 µM (inactive); in the experiment on OVCAR-5, > 100 µM (inactive); in the experiment with OVCAR-8 it was 49.1 µM (inactive). Also, the GI50 in the experiment on RXF 393 is 39.4 µM (inactive); in the experiment on SK-OV-3, 60.3 µM (inactive); in the experiment on U-251, 34 µM (inactive); in the experiment with UO-31 it was 34.9 µM (inactive).

For `O=[N+]([O-])C1C2C=CC(C2)[C@H]1c1ccco1` (some centres undefined), the GI50 in the experiment with 786-0 was > 100 µM (inactive); in the experiment on A498, > 100 µM (inactive); in the experiment on A549, > 100 µM (inactive); in the experiment with CAKI-1, > 100 µM (inactive); with CCRF-CEM, > 100 µM (inactive); with HT-29, 2.19 µM (inactive). For the same compound, the GI50 with MOLT-4, in the experiment with NCI-H460, in the experiment on NCI-H522, in the experiment with OVCAR-3, in the experiment with OVCAR-4 and in the experiment on OVCAR-5 was > 100 µM (inactive) in each case. The GI50 in the experiment on OVCAR-8, with RXF 393, in the experiment with SK-OV-3, in the experiment on U-251 and in the experiment with UO-31 was > 100 µM (inactive) in each case.

As for `COc1ccc(-c2cc(=O)c3c(O)cccc3o2)c(OC)c1OC`, the GI50 is > 100 µM (inactive) with 786-0; 33 µM (inactive) in the experiment with A498; 26.6 µM (inactive) in the experiment with A549; 97.3 µM (inactive) in the experiment with CAKI-1; > 100 µM (inactive) with CCRF-CEM; > 100 µM (inactive) in the experiment on HT-29. Further, the GI50 in the experiment with MOLT-4 was 12.9 µM (inactive); in the experiment with NCI-H460, 80 µM (inactive); with NCI-H522, > 100 µM (inactive); in the experiment with OVCAR-3 it was > 100 µM (inactive); in the experiment with OVCAR-4 it was 74.5 µM (inactive); in the experiment with OVCAR-5 it was 6.67 µM (inactive). Further, the GI50 was > 100 µM (inactive) in the experiment on OVCAR-8; > 100 µM (inactive) in the experiment on RPMI-8226; 20.2 µM (inactive) in the experiment on RXF 393; > 100 µM (inactive) in the experiment with SK-OV-3; 16.1 µM (inactive) in the experiment with U-251.

With `c1ccc(COc2ccc3[nH]c4c5c6ccccc6nc-5c[nH]c4c3c2)cc1`, the GI50 in the experiment on 786-0 was 6.46 µM (inactive); in the experiment on A498 it was 21.6 µM (inactive); in the experiment with A549, 17.8 µM (inactive); with CAKI-1, 22 µM (inactive); with CCRF-CEM, 11.4 µM (inactive); in the experiment on HT-29, 5.47 µM (inactive). In addition, the GI50 in the experiment with MOLT-4 is 7.62 µM (inactive); in the experiment on NCI-H460, 18.6 µM (inactive); in the experiment on NCI-H522 it was 16.7 µM (inactive); in the experiment with OVCAR-3 it was 15.9 µM (inactive); in the experiment on OVCAR-5 it was 19.4 µM (inactive); with OVCAR-8, 17.5 µM (inactive). Moreover, the GI50 with RPMI-8226 was 2.97 µM (inactive); in the experiment on RXF 393, 11.2 µM (inactive); in the experiment on SK-OV-3 it was 18.4 µM (inactive); in the experiment on U-251, 11.7 µM (inactive); with UO-31, 18.7 µM (inactive).
